Laboratory results as given in patent US9125388B2, “Biological control” (Isis Innovation Limited, priority 1999, dated 2015).

What was measured:
Format in all cases: in vivo, Drosophila melanogaster
[1] = test system: Actin5C tTa^(B, C, E) × tRe Msl-1^MPu(A, B); assay: Single chromosome crosses at 25° C., adult progeny by sex
Protocol: (§1) In “single chromosome crosses” at 25° C., ten to fifteen virgin females homozygous for the tTA construct and five to ten young males homozygous for the tRe construct were placed on food containing or lacking a tetracycline supplement.

[2] = test system: Actin5C tTa^(B, C, E) × tRe Msl-2^Nopu (B, C, D); assay: as above
Protocol: as §1

[3] = test system: Actin5C tTa^(B, C, E) × tRe Ras64B^V12(B, C); assay: as above
Protocol: as §1

[4] = test system: Hsp26 tTa^(A) × tRe MSl-1^Mpu(A, B,); assay: as above
Protocol: as §1

[5] = test system: Stwl tTa^(A, B, C) × tRe Msl-2^Nopu(B, C, D); assay: as above
Protocol: as §1

[6] = test system: Stwl tTa^(A, B, C) × tRe Ras64B^V12(B, C); assay: as above
Protocol: as §1

[7] = test system: Sxlpe tTa^(A, B, C, F) × tRe Msl-1^Mpu(A, B); assay: as above
Protocol: as §1

[8] = test system: Sxlpe tTa^(A, B, C, F) × tRe Msl-2^Nopu(B, C, D); assay: as above
Protocol: as §1

[9] = test system: Sxlpe tTa^(A, B, C, F) × tRe Ras64B^V12(B, C); assay: as above
Protocol: as §1

[10] = test system: Yp3 tTa^(A) × tRe Msl-1^Mpu(A, B,); assay: as above
Protocol: as §1

[11] = test system: (Female) Sxlp^e tTa^(A) × tRe lacZ^(III) (Male); assay: Reporter crosses at 25° C., embryos stained for lacZ
Text: (§2) As with “single chromosome crosses”, ten to fifteen virgin females homozygous for the tTA construct and five to ten young males homozygous for the tRe construct were placed on food containing or lacking a tetracycline supplement.

[12] = test system: (Male) Sxlp^e tTa^(A) tRe lacZ^(I) × C(1)DX (Female); assay: as above
Text: as §2
C(1)DX is a compound X chromosome; effectively two X chromosomes joined together. The X chromosome from males crossed to C(1)DX females is therefore inherited by the sons, rather than the daughters.

bnk-tTa × tRe-Nipp1Dm = assay: Tc-repressible lethality using an embryo-specific promoter (Table 2), adult progeny by sex; settings: embryos laid on this food for 9 days
Text: Flies were reared on standard yeast/cornmeal/agar food with a yeast concentration of 45-50 gl^−1. Tc-containing food was made to the same recipe with the addition of tetracycline hydrochloride (Sigma-Aldrich) solution to the appropriate final concentration.
As ectopic Ras64B^V12 apparently lacks embryonic toxicity under the conditions we are using, we placed a different toxic gene under the control of tRe. We chose to use Nipp1Dm, a Drosophila homolog of mammalian NIPP-1, a nuclear inhibitor of protein phosphatase type 1 (Beullens et al., (1992), J. Biol. Chem. 267, 16538-16544; Van Eynde et al., (1995), J Biol Chem 270, 28068-74). NIPP1 has several advantages as a “killer gene” in this system. Flies carrying homozygous insertions of bnk-tTa or tRe-Nipp1 were crossed to each other. […] Furthermore, F1 survival was not affected by the presence or absence of Tc in the media on which the F1 were raised. We have therefore constructed an efficient dominant lethal genetic system repressible by parental dietary Tc.
Males homozygous for bnk-tTa were mated with females homozygous for either tRe-Ras64B^V12 or tRe-Nipp1Dm. These flies were raised on media lacking Tc, but before mating were placed on food containing various concentrations of Tc. They were allowed to lay embryos on this food for 9 days, and then the parents were removed. Their adult progeny of each sex were counted.

[13] = parents on food containing Tc 0.1 μg/ml
[14] = parents on food containing Tc 1.0 μg/ml

CN(C)[C@@H]1C(O)=C(C(N)=O)C(=O)[C@@]2(O)C(O)=C3C(=O)c4c(O)cccc4[C@@](C)(O)[C@H]3C[C@@H]12 [Tetracycline, tetracycline]
Female progeny Total ([1]; Tetracycline 0.1 μg/ml in food): 412 | Male progeny Total ([1]; Tetracycline 0.1 μg/ml in food): 402 | Female progeny Total ([1]; Tetracycline 1 μg/ml in food): 321 | Male progeny Total ([1]; Tetracycline 1 μg/ml in food): 351 | Female progeny Total ([1]; Tetracycline 5 μg/ml in food): 386 | Male progeny Total ([1]; Tetracycline 5 μg/ml in food): 401 | Female progeny Total ([2]; Tetracycline 0.1 μg/ml in food): 548 | Male progeny Total ([2]; Tetracycline 0.1 μg/ml in food): 637 | Female progeny Total ([2]; Tetracycline 1 μg/ml in food): 590 | Male progeny Total ([2]; Tetracycline 1 μg/ml in food): 549 | Female progeny Total ([2]; Tetracycline 5 μg/ml in food): 615 | Male progeny Total ([2]; Tetracycline 5 μg/ml in food): 522 | Female progeny Total ([3]; Tetracycline 0.1 μg/ml in food): 361 | Male progeny Total ([3]; Tetracycline 0.1 μg/ml in food): 372 | Female progeny Total ([3]; Tetracycline 1 μg/ml in food): 427 | Male progeny Total ([3]; Tetracycline 1 μg/ml in food): 383 | Female progeny Total ([3]; Tetracycline 5 μg/ml in food): 375 | Male progeny Total ([3]; Tetracycline 5 μg/ml in food): 400 | Female progeny Total ([4]; Tetracycline 0.1 μg/ml in food): 328 | Male progeny Total ([4]; Tetracycline 0.1 μg/ml in food): 368 | Female progeny Total ([4]; Tetracycline 1 μg/ml in food): 310 | Male progeny Total ([4]; Tetracycline 1 μg/ml in food): 343 | Female progeny Total ([4]; Tetracycline 5 μg/ml in food): 313 | Male progeny Total ([4]; Tetracycline 5 μg/ml in food): 347 | Female progeny Total ([5]; Tetracycline 0.1 μg/ml in food): 436 | Male progeny Total ([5]; Tetracycline 0.1 μg/ml in food): 491 | Female progeny Total ([5]; Tetracycline 1 μg/ml in food): 439 | Male progeny Total ([5]; Tetracycline 1 μg/ml in food): 490 | Female progeny Total ([5]; Tetracycline 5 μg/ml in food): 434 | Male progeny Total ([5]; Tetracycline 5 μg/ml in food): 481 | Female progeny Total ([6]; Tetracycline 0.1 μg/ml in food): 317 | Male progeny Total ([6]; Tetracycline 0.1 μg/ml in food): 315 | Female progeny Total ([6]; Tetracycline 1 μg/ml in food): 307 | Male progeny Total ([6]; Tetracycline 1 μg/ml in food): 328 | Female progeny Total ([6]; Tetracycline 5 μg/ml in food): 271 | Male progeny Total ([6]; Tetracycline 5 μg/ml in food): 335 | Female progeny Total ([7]; Tetracycline 0.1 μg/ml in food): 296 | Male progeny Total ([7]; Tetracycline 0.1 μg/ml in food): 520 | Female progeny Total ([7]; Tetracycline 1 μg/ml in food): 326 | Male progeny Total ([7]; Tetracycline 1 μg/ml in food): 473 | Female progeny Total ([7]; Tetracycline 5 μg/ml in food): 304 | Male progeny Total ([7]; Tetracycline 5 μg/ml in food): 535 | Female progeny Total ([8]; Tetracycline 0.1 μg/ml in food): 647 | Male progeny Total ([8]; Tetracycline 0.1 μg/ml in food): 562 | Female progeny Total ([8]; Tetracycline 1 μg/ml in food): 644 | Male progeny Total ([8]; Tetracycline 1 μg/ml in food): 674 | Female progeny Total ([8]; Tetracycline 5 μg/ml in food): 615 | Male progeny Total ([8]; Tetracycline 5 μg/ml in food): 742 | Female progeny Total ([9]; Tetracycline 0.1 μg/ml in food): 379 | Male progeny Total ([9]; Tetracycline 0.1 μg/ml in food): 434 | Female progeny Total ([9]; Tetracycline 1 μg/ml in food): 386 | Male progeny Total ([9]; Tetracycline 1 μg/ml in food): 389 | Female progeny Total ([9]; Tetracycline 5 μg/ml in food): 383 | Male progeny Total ([9]; Tetracycline 5 μg/ml in food): 375 | Female progeny Total ([10]; Tetracycline 0.1 μg/ml in food): 336 | Male progeny Total ([10]; Tetracycline 0.1 μg/ml in food): 379 | Female progeny Total ([10]; Tetracycline 1 μg/ml in food): 319 | Male progeny Total ([10]; Tetracycline 1 μg/ml in food): 347 | Female progeny Total ([10]; Tetracycline 5 μg/ml in food): 307 | Male progeny Total ([10]; Tetracycline 5 μg/ml in food): 348 | LacZ negative Total ([11]; Tetracycline 0.1 μg/ml in food): 709 | LacZ positive Total ([11]; Tetracycline 0.1 μg/ml in food): 0 | LacZ negative Total ([11]; Tetracycline 1 μg/ml in food): 739 | LacZ positive Total ([11]; Tetracycline 1 μg/ml in food): 0 | LacZ negative Total ([11]; Tetracycline 5 μg/ml in food): 651 | LacZ positive Total ([11]; Tetracycline 5 μg/ml in food): 0 | LacZ negative Total ([12]; Tetracycline 0.1 μg/ml in food): 708 | LacZ positive Total ([12]; Tetracycline 0.1 μg/ml in food): 0 | LacZ negative Total ([12]; Tetracycline 1 μg/ml in food): 737 | LacZ positive Total ([12]; Tetracycline 1 μg/ml in food): 0 | LacZ negative Total ([12]; Tetracycline 5 μg/ml in food): 683 | LacZ positive Total ([12]; Tetracycline 5 μg/ml in food): 0 | Females, adult progeny (bnk-tTa × tRe-Nipp1Dm; [13]): 58 | Males, adult progeny (bnk-tTa × tRe-Nipp1Dm; [13]): 60 | Females, adult progeny (bnk-tTa × tRe-Nipp1Dm; [14]): 82 | Males, adult progeny (bnk-tTa × tRe-Nipp1Dm; [14]): 78
